Broadly, the inhibition is the share of the control response that was lost under treatment.

The test system of this assay is melanocytes. As to the kind of experiment: Activity on melanogenesis (melanin content of melanocytes, 450 nm). In kind it is cell-based. Particulars: Melanocyte, 72 hours, read-out: % inhibition of melanin synthesis. The procedure:
The melanocytes are left to incubate in a suitable culture medium at 37° C. for 72 hours in contact with the myrtle extract according to example 1, at different concentrations, and with hydroquinone, the reference substance. At the end of the incubation period, the melanocytes are collected and washed. The cells are then treated with a sodium solution to extract the melanin. The stained solutions are then assayed under 450 nm spectrophotometry for their melanin content using a calibration curve. A melanogenesis-inhibiting activity of the tested products will translate as a lower melanin content in the extracted melanocyte solutions. A prior cytotoxicity test is evidently performed on these same cells to verify the non-toxicity of the extracts at the tested concentrations.

For `Oc1ccc(O)cc1` [Hydroquinone], the inhibition at 5 µM (0.005 mM) was 35.7%. In addition, for the setting “0.01 mM”, the inhibition at 10 µM came out at 58%.

Values taken from US20110027205A1, “USE OF MYRTLE EXTRACT AS DEPIGMENTING AGENT” (PIERRE FABRE DERMO-COSMETIQUE, priority 2008, published 2011).
